This note sets out measurements from ChEMBL document CHEMBL5584231, “Rational design of a new short anticancer peptide with good potential for cancer treatment” (Eur J Med Chem, 2024).

In data set [1] the test system is MCF7. Briefly: Cytotoxicity against human MCF7 cells assessed as inhibition of cell growth incubated for 1 hr by MTT assay. It is filed as functional, cell-based. As to conditions: MCF7, 1 h.
The next data set relates to A549. Description: Cytotoxicity against human A549 cells assessed as inhibition of cell growth incubated for 1 hr by MTT assay. It counts as functional, cell-based. The settings on record: A549, 1 h.
Data set [2] is described as follows: Cytotoxicity against HK-2 cells assessed as inhibition of cell growth incubated for 1 hr by MTT assay. It counts as toxicity, cell-based. The settings on record: human.
The nature of data set [3]: Therapeutic index, ratio of HC10 for mouse RBC to IC50 for cytotoxicity against human HeLa cells. It is filed as toxicity, cell-based. As to conditions: mouse RBC and HeLa cells, read-out: TI.
The subject of data set [4] is Cell membrane. Description: Disruption of cell membrane in human MCF7 cells assessed as LDH release at 2.5 to 40 uM incubated for 1 hr by fluorescence based microplate reader analysis. It counts as cell membranes. As to conditions: dose 2.5-40 µM.
The test system of data set [5] is Cell membrane. Briefly: Induction of morphological changes in cell membrane of human MCF7 cells assessed as severe membrane rupture at 1 times IC50 incubated for 1 hr by SEM analysis. It is filed as cell membranes.
The test system of data set [6] is Cell membrane. Briefly: Disruption of cell membrane integrity in human MCF7 cells assessed as increase in PI fluorescence measured after 1 hr by laser confocal scanning microscopic analysis. It counts as cell membranes.
The test system of data set [7] is Cell membrane. Description: Induction of cell membrane damage in human MCF7 cells assessed as nucleic acid leakage at 1 to 2 times IC50 measured after 0.5 to 6 hrs by UV based analysis. The settings on record: time 0.5-6 hrs. It counts as cell membranes.
For data set [8], the system named is MCF7. Briefly: Effect on cell cycle progression in human MCF7 cells at 1 times IC50 measured after 1 hr by PI/RNase staining based flow cytometry analysis. It is filed as functional.
Data set [9] deals with MCF7. Description: Induction of apoptosis in human MCF7 cells assessed as late apoptotic cells at 1 times IC50 measured after 24 hrs by Annexin V-FITC staining based flow cytometry analysis (reference value: 1.60%). It is filed as functional.
The test system of data set [10] is MCF7. Description: Antimigratory activity in human MCF7 cells assessed as reduction in cell migration at 1 times IC50 measured after 24 hrs by scratch-wound healing assay. It counts as functional, cell-based.
In data set [11] the test system is 4T1. Briefly: Antitumor activity against mouse 4T1 cells implanted in female Balb/c mouse assessed as reduction in tumor weight at 12 micromol/kg, ip administered every other day for 2 weeks and measured every 2 days relative to control. The arrangement: scale not given: the % may be the effect or the level left. It is filed as functional. The settings on record: dose 12 µmol/kg.

The nature of data set [12]: Toxicity in female Balb/c mouse implanted with mouse 4T1 cells assessed as pathological changes in spleen at 12 micromol/kg, ip administered every other day for 2 weeks by H and E staining based analysis. It is filed as organism-based. As to conditions: in vivo, 336 h, dose 12 µmol/kg.
In data set [13] the test system is 4T1. Briefly: Antitumor activity against mouse 4T1 cells implanted in female Balb/c mouse assessed as increase in tumor cell necrosis at 12 micromol/kg, ip administered every other day for 2 weeks by H and E staining based analysis. As to conditions: dose 12.0 µmol/kg. It is filed as functional, organism-based.
A short description of data set [14]: Acute toxicity in female Balb/c mouse assessed as reduction in survival rate at 50 mg/kg, ip administered as single dose and measured for 7 days. The settings on record: in vivo, 168 h, time 7 day. It is filed as organism-based.
A short description of data set [15]: Acute toxicity in female Balb/c mouse assessed as reduction in survival rate at 65 to 110 mg/kg, ip administered as single dose and measured for 7 days. As to conditions: in vivo, 168 h, dose 65-110 mg/kg, time 7 day. It counts as organism-based.
The nature of data set [16]: Acute toxicity in ip dosed female Balb/c mouse administered as single dose and measured for 7 days by karber method. It counts as organism-based. The settings on record: in vivo, time 7 day.
A short description of data set [17]: Acute toxicity in female Balb/c mouse assessed as reduction in survival rate at 37 mg/kg, ip administered as single dose and measured for 7 days. It counts as organism-based. As to conditions: in vivo, 168 h, time 7 day.
A short description of data set [18]: Acute toxicity in female Balb/c mouse assessed as reduction in survival rate at 37 to 55 mg/kg, ip administered as single dose and measured for 7 days. It is filed as organism-based. The settings on record: in vivo, 168 h, dose 37-55 mg/kg, time 7 day.
Data set [19] is described as follows: Acute toxicity in female Balb/c mouse assessed as shrinking cytoplasm in kidney at approximately LD50 administered as single ip dose by H and E staining based analysis. It counts as organism-based. The settings on record: in vivo.
The nature of data set [20]: Acute toxicity in female Balb/c mouse assessed as necrosis in kidney at approximately LD50 administered as single ip dose by H and E staining based analysis. The settings on record: in vivo. It is filed as organism-based.
For data set [21], the system named is 4T1. Briefly: Antitumor activity against mouse 4T1 cells implanted in female Balb/c mouse assessed as increase in tumor cell lysis at 12 micromol/kg, ip administered every other day for 2 weeks by H and E staining based analysis. It is filed as functional, organism-based. As to conditions: dose 12.0 µmol/kg.
In data set [22] the test system is 4T1. Description: Antitumor activity against mouse 4T1 cells implanted in female Balb/c mouse assessed as nucleus contraction at 12 micromol/kg, ip administered every other day for 2 weeks by H and E staining based analysis. It is filed as functional, organism-based. The settings on record: dose 12.0 µmol/kg.
Data set [23] can be described thus: Acute toxicity in female Balb/c mouse assessed as reduction in survival rate at 65 mg/kg, ip administered as single dose and measured for 7 days. It counts as organism-based. As to conditions: in vivo, 168 h, time 7 day.
Data set [24] is described as follows: Acute toxicity in female Balb/c mouse assessed as reduction in survival rate at 82 to 130 mg/kg, ip administered as single dose and measured for 7 days. It is filed as organism-based. The settings on record: in vivo, 168 h, dose 82-130 mg/kg, time 7 day.

pIC50: −log10 of the molar value. The source made the active and inactive calls. The rule behind the calls is not given here. Non-standard residues stand in square brackets, D forms with d. Residues, ends and D or L forms follow the SMILES beside them. Aad = N[C@@H](CCCC(=O)O)C(=O)O

On to `CC(C)C[C@H](NC(=O)[C@H](CCCCN)NC(=O)[C@H](CCCCN)NC(=O)[C@H](CC(C)C)NC(=O)[C@H](CC(C)C)NC(=O)[C@H](CCCCN)NC(=O)[C@H](CCCCN)NC(=O)[C@H](CC(C)C)NC(=O)[C@H](CC(C)C)NC(=O)[C@H](CCCCN)NC(=O)[C@H](CCCCN)NC(=O)[C@H](CC(C)C)NC(=O)[C@@H](N)CC(C)C)C(=O)N[C@@H](CCC(=O)O)C(N)=O` (H-LLKKLLKKLLKKLE-NH2), for which the pIC50 was 4.67 in the data set with MCF7 [1] and 4.84 in the data set with A549. Also, the IC50 at 1 h in data set [2] came out at 59.3 µM. The selectivity ratio in data set [3] worked out at 32.1. For the same compound, the outcome with Cell membrane [4], with Cell membrane [5], with Cell membrane [7], in the data set with MCF7 [10] and in the data set with 4T1 [13] was Active. The Activity result in the data set on Cell membrane [6] is “Dose-Dependent Effect”; in the data set with MCF7 [9], 19.1%; in the data set with 4T1 [11], 33.4%; in data set [12] it was “Non-Toxic”; in [14] it was “Non-Toxic”; in data set [15], “Toxic”. In addition, the outcome in the data set on MCF7 [8] was inactive. The compound also registered a median lethal dose (LD50) at 168 h in data set [16] of 79.9 mg/kg.
`CC(C)C[C@H](NC(=O)[C@H](CC(C)C)NC(=O)[C@H](CCCCN)NC(=O)[C@H](CCCCN)NC(=O)[C@H](CC(C)C)NC(=O)[C@H](CC(C)C)NC(=O)[C@H](CCCCN)NC(=O)[C@H](CCCCN)NC(=O)[C@H](CC(C)C)NC(=O)[C@H](CC(C)C)NC(=O)[C@H](CCCCN)NC(=O)[C@H](CCCCN)NC(=O)[C@H](CC(C)C)NC(=O)[C@@H](N)CC(C)C)C(N)=O` (H-LLKKLLKKLLKKLL-NH2): the pIC50 with MCF7 [1] is 5.32; in the data set on A549, 5.44. Moreover, in [2], the concentration for half-maximal inhibition (IC50) at 1 h was found to be 5.4 µM. Further, in [3], the selectivity ratio was 1.83. Further, the outcome in the data set with Cell membrane [4], in the data set with Cell membrane [5], with Cell membrane [7], in the data set with MCF7 [10] and in the data set with 4T1 [13] was Active. In addition, the Activity entry was “Dose-Dependent Effect” in the data set on Cell membrane [6]; 19.2% in the data set with MCF7 [9]; 28.4% in the data set on 4T1 [11]; “Non-Toxic” in data set [12]; “Non-Toxic” in data set [17]; “Toxic” in data set [18]. Further, the Activity result in [19] and in [20] was “Toxic” each time. The outcome with MCF7 [8] was inactive. Also, the 50% lethal dose (LD50) at 168 h in data set [16] was 50.2 mg/kg.
Turning to `CC(C)C[C@H](NC(=O)[C@H](CCCCN)NC(=O)[C@H](CCCCN)NC(=O)[C@H](CC(C)C)NC(=O)[C@H](CC(C)C)NC(=O)[C@H](CCCCN)NC(=O)[C@H](CCCCN)NC(=O)[C@H](CC(C)C)NC(=O)[C@H](CC(C)C)NC(=O)[C@H](CCCCN)NC(=O)[C@H](CCCCN)NC(=O)[C@H](CC(C)C)NC(=O)[C@@H](N)CC(C)C)C(=O)N[C@@H](CCCC(=O)O)C(N)=O` (H-LLKKLLKKLLKKL[Aad]-NH2), the pIC50 in the data set with MCF7 [1] was 4.80; with A549, 4.99. Further, the IC50 at 1 h in data set [2] stood at 38.7 µM. The selectivity ratio in [3] stood at 35.7. Moreover, the result in the data set with Cell membrane [4], with Cell membrane [5], in the data set on Cell membrane [7], with MCF7 [10], in the data set on 4T1 [13] and with 4T1 [21] was Active. For the same compound, the outcome with 4T1 [22] was Active. Moreover, the Activity result in the data set with Cell membrane [6] was “Dose-Dependent Effect”; in the data set with MCF7 [9], 13.8%; in the data set on 4T1 [11], 52.4%; in data set [12], “Non-Toxic”; in [23], “Non-Toxic”; in data set [24] it was “Toxic”. In the data set with MCF7 [8], the outcome was inactive. In addition, in data set [16], the median lethal dose (LD50) at 168 h came out at 84 mg/kg.
